Reference: patent US4201774A, “Novel aminoglycoside derivatives” (Shionogi & Co., Ltd., priority 1977, dated 1980)
In brackets after ≈: the same amount, converted by molar mass.

Experiments:
[1] = tested on: Escherichia coli W-677/JR 214; assay: MIC, Escherichia coli W-677/JR 214*; details: W677/JR214, read-out: minimum inhibitory concentration (MIC)
[2] = tested on: Enterobacter cloacae Cl-126; assay: MIC, Enterobacter cloacae Cl-126*; details: CL126, read-out: minimum inhibitory concentration (MIC)
Proteus inconstans In-43 = assay: MIC, Proteus inconstans In-43*; type: cell-based; details: Providencia alcalifaciens, IN43; Proteus inconstans In-43, tobramycin resistant strain; read-out: minimum inhibitory concentration (MIC)
Escherichia coli EC-148 = assay: MIC, Escherichia coli EC-148*; details: EC148, read-out: minimum inhibitory concentration (MIC)
[3] = tested on: Escherichia coli W-677/JR-762; assay: MIC, Escherichia coli W-677/JR-762*; details: W677/JR762, read-out: minimum inhibitory concentration (MIC)
[4] = tested on: Klebsiella pneumoniae Kl-187; assay: MIC, Klebsiella pneumoniae Kl-187*; details: KL187, read-out: minimum inhibitory concentration (MIC)
[5] = tested on: Staphylococus epidermidis TB-302; assay: MIC, Staphylococus epidermidis TB-302; type: cell-based; details: read-out: minimum inhibitory concentration (MIC)
[6] = tested on: Pseudomonas aeruginosa PP-6; assay: MIC, Pseudomonas aeruginosa PP-6*; details: PP6, read-out: minimum inhibitory concentration (MIC)
[7] = tested on: Citrobactor freundii Ct-52; assay: MIC, Citrobactor freundii Ct-52*; details: read-out: minimum inhibitory concentration (MIC)
[8] = tested on: Escherichia coli W-677/JR 225; assay: MIC, Escherichia coli W-677/JR 225*; details: W677/JR225, read-out: minimum inhibitory concentration (MIC)
Seratia marcescens MA-81 = assay: MIC, Seratia marcescens MA-81*; type: cell-based; details: Seratia marcescens MA-81, tobramycin resistant strain; read-out: minimum inhibitory concentration (MIC)
Escherichia coli EC-147 = assay: MIC, Escherichia coli EC-147*; details: EC147, read-out: minimum inhibitory concentration (MIC)
[9] = tested on: Staphylococcus aureus S-25; assay: MIC, Staphylococcus aureus S-25*; details: S25, read-out: minimum inhibitory concentration (MIC)

Compound	MIC [1] [mg/L]	MIC [2] [mg/L]	MIC (Proteus inconstans In-43) [mg/L]	MIC (Escherichia coli EC-148) [mg/L]	MIC [3] [mg/L]	MIC [4] [mg/L]	MIC [5] [mg/L]	MIC [6] [mg/L]	MIC [7] [mg/L]	MIC [8] [mg/L]	MIC (Seratia marcescens MA-81) [mg/L]	MIC (Escherichia coli EC-147) [mg/L]	MIC [9] [mg/L]
NC[C@H]1O[C@H](O[C@H]2[C@H](O)[C@@H](O[C@H]3O[C@H](CO)[C@@H](O)[C@H](N)[C@H]3O)[C@H](NCC3(O)CNC3)C[C@@H]2N)[C@H](N)C[C@@H]1O [Test compound (1), 1-N-[(3-hydroxyazetidin-3-yl)methyl]tobramycin]	1.56 (≈ 2.82 µM)	0.78 (≈ 1.41 µM)	6.25 (≈ 11.3 µM)	3.13 (≈ 5.66 µM)	3.13 (≈ 5.66 µM)	0.78 (≈ 1.41 µM)	3.13 (≈ 5.66 µM)	0.78 (≈ 1.41 µM)	0.78 (≈ 1.41 µM)	1.56 (≈ 2.82 µM)	12.5 (≈ 22.6 µM)	3.13 (≈ 5.66 µM)	50 (≈ 90.5 µM)
NC[C@H]1O[C@H](O[C@H]2[C@H](O)[C@@H](O[C@H]3O[C@H](CO)[C@@H](O)[C@H](N)[C@H]3O)[C@H](NCC3(O)CCNC3)C[C@@H]2N)[C@H](N)C[C@@H]1O (some centres unmarked) [Test compound (2), 1-N-[(3-hydroxypyrrolidin-3-yl)methyl]tobramycin]	1.56 (≈ 2.75 µM)	0.78 (≈ 1.38 µM)	12.5 (≈ 22.1 µM)	3.13 (≈ 5.52 µM)	3.13 (≈ 5.52 µM)	0.39 (≈ 0.688 µM)	1.56 (≈ 2.75 µM)	0.78 (≈ 1.38 µM)	0.78 (≈ 1.38 µM)	0.78 (≈ 1.38 µM)	12.5 (≈ 22.1 µM)	3.13 (≈ 5.52 µM)	25 (≈ 44.1 µM)
NC[C@H]1O[C@H](O[C@H]2[C@H](O)[C@@H](O[C@H]3O[C@H](CO)[C@@H](O)[C@H](N)[C@H]3O)[C@H](NCC3(O)CNC3)C[C@@H]2N)[C@H](O)[C@@H](O)[C@@H]1O [Test compound (3), 1-N-[(3-hydroxyazetidin-3-yl)methyl]kanamycin A]	6.25 (≈ 11 µM)	1.56 (≈ 2.74 µM)	3.13 (≈ 5.49 µM)	12.5 (≈ 21.9 µM)	12.5 (≈ 21.9 µM)	1.56 (≈ 2.74 µM)	3.13 (≈ 5.49 µM)	3.13 (≈ 5.49 µM)	3.13 (≈ 5.49 µM)	3.13 (≈ 5.49 µM)	12.5 (≈ 21.9 µM)	6.25 (≈ 11 µM)	25 (≈ 43.9 µM)
NC[C@H]1O[C@H](O[C@H]2[C@H](O)[C@@H](O[C@H]3O[C@H](CO)[C@@H](O)[C@H](N)[C@H]3O)[C@H](N)C[C@@H]2N)[C@H](N)C[C@@H]1O [Test compound (5), tobramycin, reference compound]	100 (≈ 214 µM)	25 (≈ 53.5 µM)	6.25 (≈ 13.4 µM)	100 (≈ 214 µM)	> 100	25 (≈ 53.5 µM)	3.13 (≈ 6.69 µM)	50 (≈ 107 µM)	25 (≈ 53.5 µM)	50 (≈ 107 µM)	> 100	50 (≈ 107 µM)	100 (≈ 214 µM)
NC[C@H]1O[C@H](O[C@H]2[C@H](O)[C@@H](O[C@H]3O[C@H](CO)[C@@H](O)[C@H](N)[C@H]3O)[C@H](NCC3(O)CCNC3)C[C@@H]2N)[C@H](O)[C@@H](O)[C@@H]1O (some centres unmarked) [Test compound (4), 1-N-[(3-hydroxypyrrolidin-3-yl)methyl]kanamycin A]	3.13 (≈ 5.36 µM)	1.56 (≈ 2.67 µM)	3.13 (≈ 5.36 µM)	6.25 (≈ 10.7 µM)	12.5 (≈ 21.4 µM)	1.56 (≈ 2.67 µM)	1.56 (≈ 2.67 µM)	3.13 (≈ 5.36 µM)	1.56 (≈ 2.67 µM)	3.13 (≈ 5.36 µM)	12.5 (≈ 21.4 µM)	6.25 (≈ 10.7 µM)	12.5 (≈ 21.4 µM)
